# Laboratory results published in ChEMBL document CHEMBL1240341 (Leukemia, 2009).
# Tests used:
# [1] = target: Mitogen-activated protein kinase kinase kinase kinase 5 (Homo sapiens, UniProt Q9Y4K4); assay: Inhibition of MAP4K5
# [2] = target: Interleukin-1 receptor-associated kinase 4 (Homo sapiens, UniProt Q9NWZ3); assay: Inhibition of IRAK4
# [3] = target: T1, High affinity nerve growth factor receptor (Homo sapiens, UniProt P04629); assay: Inhibition of TRKA
# [4] = target: Tyrosine-protein kinase BTK (Homo sapiens, UniProt Q06187); assay: Inhibition of BTK
# Activated CDC42 kinase 1 = Activated CDC42 kinase 1 (Homo sapiens, UniProt Q07912); assay: Inhibition of TNK2
# [5] = target: Tyrosine-protein kinase HCK (Homo sapiens, UniProt P08631); assay: Inhibition of HCK
# [6] = target: Tyrosine-protein kinase CSK (Homo sapiens, UniProt P41240); assay: Inhibition of CSK
# [7] = target: Tyrosine-protein kinase ABL2 (Homo sapiens, UniProt P42684); assay: Inhibition of ABL2
# [8] = target: Tyrosine-protein kinase FRK (Homo sapiens, UniProt P42685); assay: Inhibition of FRK
# [9] = target: Tyrosine-protein kinase TXK (Homo sapiens, UniProt P42681); assay: Inhibition of TXK
# Angiopoietin-1 receptor [10] = target: T2, Angiopoietin-1 receptor (Homo sapiens, UniProt Q02763); assay: Inhibition of TIE2
# [11] = target: Serine/threonine-protein kinase 24 (Homo sapiens, UniProt Q9Y6E0); assay: Inhibition of STK24
# [12] = target: Mitogen-activated protein kinase kinase kinase kinase 2 (Homo sapiens, UniProt Q12851); assay: Inhibition of MAP4K2
# [13] = target: Protein-tyrosine kinase 2-beta (Homo sapiens, UniProt Q14289); assay: Inhibition of PTK2B
# [14] = target: Serine/threonine-protein kinase TBK1 (Homo sapiens, UniProt Q9UHD2); assay: Inhibition of TBK1
# [15] = target: Calcium/calmodulin-dependent protein kinase type II subunit gamma (Homo sapiens, UniProt Q13555); assay: Inhibition of CAMK2G
# [16] = target: Tyrosine-protein kinase Tec (Homo sapiens, UniProt P42680); assay: Inhibition of TEC
# [17] = target: Tyrosine-protein kinase Fgr (Homo sapiens, UniProt P09769); assay: Inhibition of FGR
# [18] = target: T3, BDNF/NT-3 growth factors receptor (Homo sapiens, UniProt Q16620); assay: Inhibition of TRKB
# [19] = target: Tyrosine-protein kinase Blk (Mus musculus, UniProt P16277); assay: Inhibition of mouse BLK
# Misshapen-like kinase 1 = Misshapen-like kinase 1 (Homo sapiens, UniProt Q8N4C8); assay: Inhibition of MINK1
# [20] = target: Interleukin-1 receptor-associated kinase 4 (Homo sapiens) (UniProt Q9NWZ3); assay: Inhibition of IRAK4 at 10 uM
# [21] = target: Tyrosine-protein kinase Fes/Fps (Homo sapiens) (UniProt P07332); assay: Inhibition of FES at 10 uM
# Angiopoietin-1 receptor [22] = target: T2, Angiopoietin-1 receptor; assay: Inhibition of TIE2 at 10 uM
# [23] = target: T3, BDNF/NT-3 growth factors receptor; assay: Inhibition of TRKB at 10 uM
# Target sequence in this assay (Q16620 32-822 limits assumed): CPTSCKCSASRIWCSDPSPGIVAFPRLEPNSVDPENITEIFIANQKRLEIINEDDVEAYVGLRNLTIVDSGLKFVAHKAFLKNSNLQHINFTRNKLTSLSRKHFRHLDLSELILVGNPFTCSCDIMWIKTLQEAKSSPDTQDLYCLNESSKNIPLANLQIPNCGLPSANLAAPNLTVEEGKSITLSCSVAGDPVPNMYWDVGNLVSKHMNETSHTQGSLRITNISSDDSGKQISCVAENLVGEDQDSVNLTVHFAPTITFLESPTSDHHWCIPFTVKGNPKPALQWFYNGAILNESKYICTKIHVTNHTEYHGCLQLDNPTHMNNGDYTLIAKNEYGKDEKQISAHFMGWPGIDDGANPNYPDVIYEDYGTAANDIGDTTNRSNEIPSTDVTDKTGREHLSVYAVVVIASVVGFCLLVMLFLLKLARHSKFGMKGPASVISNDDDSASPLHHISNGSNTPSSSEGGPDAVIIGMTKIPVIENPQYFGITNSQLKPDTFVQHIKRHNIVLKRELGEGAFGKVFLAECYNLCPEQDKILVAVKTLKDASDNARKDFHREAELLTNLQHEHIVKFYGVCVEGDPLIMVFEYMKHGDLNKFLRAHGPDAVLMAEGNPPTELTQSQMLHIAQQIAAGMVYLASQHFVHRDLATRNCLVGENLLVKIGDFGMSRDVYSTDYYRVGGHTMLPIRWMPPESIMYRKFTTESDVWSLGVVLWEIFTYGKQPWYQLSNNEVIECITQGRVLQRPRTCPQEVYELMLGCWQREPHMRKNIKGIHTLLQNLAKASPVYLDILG
# [24] = target: T1, High affinity nerve growth factor receptor; assay: Inhibition of TRKA at 10 uM
# [25] = target: Tyrosine-protein kinase receptor UFO (Homo sapiens) (UniProt P30530); assay: Inhibition of AXL at 10 uM
# Chain of Tyrosine-protein kinase receptor UFO (Homo sapiens) (P30530 whole entry): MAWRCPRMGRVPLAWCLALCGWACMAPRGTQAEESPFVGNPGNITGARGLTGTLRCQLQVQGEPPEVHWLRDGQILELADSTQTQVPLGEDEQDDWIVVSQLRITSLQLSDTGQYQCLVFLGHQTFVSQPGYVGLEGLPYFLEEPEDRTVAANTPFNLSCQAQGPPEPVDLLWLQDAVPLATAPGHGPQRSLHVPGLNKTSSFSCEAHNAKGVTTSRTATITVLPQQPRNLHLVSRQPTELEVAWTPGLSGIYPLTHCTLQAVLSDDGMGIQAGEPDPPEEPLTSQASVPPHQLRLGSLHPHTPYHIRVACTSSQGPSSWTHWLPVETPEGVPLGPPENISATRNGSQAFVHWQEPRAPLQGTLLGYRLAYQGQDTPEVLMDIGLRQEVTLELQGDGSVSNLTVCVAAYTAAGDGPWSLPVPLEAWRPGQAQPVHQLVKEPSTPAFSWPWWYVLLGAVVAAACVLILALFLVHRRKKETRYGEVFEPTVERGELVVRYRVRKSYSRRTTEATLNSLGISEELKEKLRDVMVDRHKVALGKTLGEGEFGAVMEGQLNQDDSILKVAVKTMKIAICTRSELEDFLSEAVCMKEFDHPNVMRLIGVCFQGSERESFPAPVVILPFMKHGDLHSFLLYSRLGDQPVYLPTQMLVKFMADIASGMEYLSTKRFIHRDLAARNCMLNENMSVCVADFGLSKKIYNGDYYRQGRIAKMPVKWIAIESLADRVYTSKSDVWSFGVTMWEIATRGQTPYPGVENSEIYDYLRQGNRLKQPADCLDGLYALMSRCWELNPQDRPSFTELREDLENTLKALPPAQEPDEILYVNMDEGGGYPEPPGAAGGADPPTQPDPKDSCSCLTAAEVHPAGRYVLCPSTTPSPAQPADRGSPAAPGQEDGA
# T2 sequence (Q02763 whole entry): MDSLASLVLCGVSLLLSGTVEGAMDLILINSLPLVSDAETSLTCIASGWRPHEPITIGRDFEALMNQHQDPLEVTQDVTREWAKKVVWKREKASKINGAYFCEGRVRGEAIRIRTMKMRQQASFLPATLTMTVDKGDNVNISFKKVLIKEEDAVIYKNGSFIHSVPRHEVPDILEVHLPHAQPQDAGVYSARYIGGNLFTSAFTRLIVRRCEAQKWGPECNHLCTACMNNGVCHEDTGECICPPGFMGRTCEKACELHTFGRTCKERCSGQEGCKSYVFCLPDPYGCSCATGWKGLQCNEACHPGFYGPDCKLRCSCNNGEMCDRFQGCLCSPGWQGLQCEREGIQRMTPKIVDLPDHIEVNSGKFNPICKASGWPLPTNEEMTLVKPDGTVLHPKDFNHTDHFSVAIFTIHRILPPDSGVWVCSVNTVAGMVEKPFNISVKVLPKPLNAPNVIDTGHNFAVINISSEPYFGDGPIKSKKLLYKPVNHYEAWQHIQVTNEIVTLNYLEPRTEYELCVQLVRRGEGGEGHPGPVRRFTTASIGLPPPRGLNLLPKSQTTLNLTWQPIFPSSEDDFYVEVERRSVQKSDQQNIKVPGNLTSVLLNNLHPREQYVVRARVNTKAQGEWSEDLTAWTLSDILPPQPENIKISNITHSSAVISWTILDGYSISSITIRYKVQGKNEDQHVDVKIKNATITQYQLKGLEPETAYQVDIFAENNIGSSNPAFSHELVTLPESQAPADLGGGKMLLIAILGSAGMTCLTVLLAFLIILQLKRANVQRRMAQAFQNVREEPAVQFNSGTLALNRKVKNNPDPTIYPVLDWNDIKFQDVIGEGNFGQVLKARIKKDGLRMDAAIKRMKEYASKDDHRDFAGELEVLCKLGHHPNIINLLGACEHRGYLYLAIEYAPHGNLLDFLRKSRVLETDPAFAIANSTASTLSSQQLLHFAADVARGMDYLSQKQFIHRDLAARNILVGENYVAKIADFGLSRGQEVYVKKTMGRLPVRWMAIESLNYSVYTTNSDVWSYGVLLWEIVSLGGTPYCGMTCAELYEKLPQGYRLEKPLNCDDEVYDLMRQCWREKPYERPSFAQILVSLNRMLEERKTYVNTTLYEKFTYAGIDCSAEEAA
# Chain of Tyrosine-protein kinase Blk (P16277 whole entry): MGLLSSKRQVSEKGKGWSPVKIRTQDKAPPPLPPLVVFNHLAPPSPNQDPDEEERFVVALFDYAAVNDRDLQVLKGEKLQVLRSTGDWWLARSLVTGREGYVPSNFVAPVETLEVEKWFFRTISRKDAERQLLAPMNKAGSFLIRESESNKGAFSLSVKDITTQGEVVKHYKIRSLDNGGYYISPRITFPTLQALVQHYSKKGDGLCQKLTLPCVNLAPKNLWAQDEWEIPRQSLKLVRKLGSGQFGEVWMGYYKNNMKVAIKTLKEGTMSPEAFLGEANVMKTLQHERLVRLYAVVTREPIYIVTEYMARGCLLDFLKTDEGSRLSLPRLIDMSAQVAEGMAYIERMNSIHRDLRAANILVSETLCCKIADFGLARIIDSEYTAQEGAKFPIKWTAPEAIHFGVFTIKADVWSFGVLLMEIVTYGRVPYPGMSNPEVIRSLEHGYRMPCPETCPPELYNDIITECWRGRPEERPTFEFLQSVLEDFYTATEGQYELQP
# Chain of Tyrosine-protein kinase BTK (Q06187 whole entry): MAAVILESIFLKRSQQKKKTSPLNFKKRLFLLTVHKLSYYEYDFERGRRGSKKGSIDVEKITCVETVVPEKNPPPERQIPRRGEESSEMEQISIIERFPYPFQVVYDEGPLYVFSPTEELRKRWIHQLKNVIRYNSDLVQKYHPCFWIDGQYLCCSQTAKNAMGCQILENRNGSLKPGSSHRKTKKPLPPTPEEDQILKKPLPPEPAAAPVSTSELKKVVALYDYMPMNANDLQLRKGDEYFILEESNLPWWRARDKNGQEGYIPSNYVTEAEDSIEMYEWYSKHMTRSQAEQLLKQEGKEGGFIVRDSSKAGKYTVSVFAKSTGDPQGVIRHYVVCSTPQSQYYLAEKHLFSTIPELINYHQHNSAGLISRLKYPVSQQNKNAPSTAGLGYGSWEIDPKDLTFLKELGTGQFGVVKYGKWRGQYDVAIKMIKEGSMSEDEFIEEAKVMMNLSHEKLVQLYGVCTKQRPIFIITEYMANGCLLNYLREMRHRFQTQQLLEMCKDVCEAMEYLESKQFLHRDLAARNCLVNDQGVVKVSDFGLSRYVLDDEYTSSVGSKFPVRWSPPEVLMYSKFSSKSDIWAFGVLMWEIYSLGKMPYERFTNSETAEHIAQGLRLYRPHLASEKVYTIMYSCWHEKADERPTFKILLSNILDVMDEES
# Chain of Calcium/calmodulin-dependent protein kinase type II subunit gamma (Q13555 whole entry): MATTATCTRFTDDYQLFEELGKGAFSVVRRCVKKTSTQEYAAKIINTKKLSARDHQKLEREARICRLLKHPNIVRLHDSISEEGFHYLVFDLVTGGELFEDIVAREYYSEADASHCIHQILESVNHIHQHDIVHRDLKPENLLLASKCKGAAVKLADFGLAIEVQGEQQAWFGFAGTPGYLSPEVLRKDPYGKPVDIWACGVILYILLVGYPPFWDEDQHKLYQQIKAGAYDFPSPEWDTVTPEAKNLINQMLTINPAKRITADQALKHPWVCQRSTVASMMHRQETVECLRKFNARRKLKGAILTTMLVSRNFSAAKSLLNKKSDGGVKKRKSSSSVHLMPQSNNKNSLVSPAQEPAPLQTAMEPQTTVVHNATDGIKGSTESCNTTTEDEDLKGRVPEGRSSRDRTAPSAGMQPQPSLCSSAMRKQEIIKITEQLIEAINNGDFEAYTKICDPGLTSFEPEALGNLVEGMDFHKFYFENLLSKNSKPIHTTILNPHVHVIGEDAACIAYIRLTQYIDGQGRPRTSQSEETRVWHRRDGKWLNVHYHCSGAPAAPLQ
# Chain of Tyrosine-protein kinase FRK (P42685 whole entry): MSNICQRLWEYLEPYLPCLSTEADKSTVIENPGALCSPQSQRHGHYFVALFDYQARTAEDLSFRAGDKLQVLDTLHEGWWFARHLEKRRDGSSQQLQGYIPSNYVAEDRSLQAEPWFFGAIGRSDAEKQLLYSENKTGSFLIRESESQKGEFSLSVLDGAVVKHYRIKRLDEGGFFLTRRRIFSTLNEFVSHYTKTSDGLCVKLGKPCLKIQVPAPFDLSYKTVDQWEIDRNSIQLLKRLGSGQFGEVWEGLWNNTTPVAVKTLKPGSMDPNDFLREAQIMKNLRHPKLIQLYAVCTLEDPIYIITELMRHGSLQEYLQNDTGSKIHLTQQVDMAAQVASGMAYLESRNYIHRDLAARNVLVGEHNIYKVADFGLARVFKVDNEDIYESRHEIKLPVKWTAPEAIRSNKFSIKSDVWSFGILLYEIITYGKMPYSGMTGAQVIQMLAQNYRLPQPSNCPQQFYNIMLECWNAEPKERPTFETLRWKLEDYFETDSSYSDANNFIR
smiles,measurement,setting,value
COc1cc(Nc2c(C#N)cnc3cc(OCCCN4CCN(C)CC4)c(OC)cc23)c(Cl)cc1Cl [BOSUTINIB],IC50,[1],0.3 nM
same,IC50,[2],574 nM
same,IC50,[3],22 nM
same,IC50,[4],2.5 nM
same,IC50,Activated CDC42 kinase 1,2.7 nM
same,IC50,[5],3.2 nM
same,IC50,[6],63 nM
same,IC50,[7],0.5 nM
same,IC50,[8],2.2 nM
same,IC50,[9],40 nM
same,IC50,Angiopoietin-1 receptor [10],1190 nM
same,IC50,[11],3.9 nM
same,IC50,[12],9.9 nM
same,IC50,[13],134 nM
same,IC50,[14],471 nM
same,IC50,[15],184 nM
same,IC50,[16],282 nM
same,IC50,[17],1.1 nM
same,IC50,[18],27 nM
same,IC50,[19],7.3 nM
same,IC50,Misshapen-like kinase 1,22 nM
Cc1nc(Nc2ncc(C(=O)Nc3c(C)cccc3Cl)s2)cc(N2CCN(CCO)CC2)n1 [DASATINIB],residual activity,[20],84%
same,residual activity,[21],83%
same,residual activity,Angiopoietin-1 receptor [22],48%
same,residual activity,[23],52%
same,residual activity,[24],35%
same,residual activity,[25],86%
same,IC50,[19],8 nM
